Results as given in US12653459B2, “Systems, devices, and methods for blood pressure control” (Massachusetts Institute of Technology, priority 2022, dated 2026).

Assays:
[1] = human, in vivo
Text: In two-compartment modeling, there is a central compartment and a peripheral compartment. […] The peripheral compartment contains tissues, including fat and bone, which uptake the drug at a slower rate than the central compartment.
where c1 in [mcg·L^−1] is the drug concentration in the central compartment, c2 in [mcg·L^−1] is the drug concentration in the peripheral compartment, kel in [min^−1] is the elimination rate constant, k12 in [min^−1] is the rate constant of distribution from the central compartment to the peripheral compartment, k21 in [min^−1] is the rate constant of distribution from the peripheral compartment to the central compartment, V1 in [L] is the volume of distribution of the central or first compartment, and u in [mcg·min^−1] represents the input infusion rate of a drug into the system. The constants defined in this model correspond to mass flow rate constants, which are traditionally estimated from empirical PK studies. As such, the formulation of Eq. 1.3 represents the dynamics of drug concentrations in the body in terms of mass flow rate constants. […] This model is time-invariant.
The volume in the central compartment, given in 0.32±0.19 in [L·kg^−1], is converted to
[formula] in [L] by multiplying by 85.41 in [kg], the average weight of the patient cohort. The following values are also derived:
[formula] […] It should be appreciated again these empirical values are mass flow rate constants.
From these parameters, k12, k21, and kel can be derived using the following,

[2] = two-compartment model of NI; mean ± spread; cited from earlier work

COC(=O)C1=C(C)NC(C)=C(C(=O)OCCN(C)Cc2ccccc2)C1c1cccc([N+](=O)[O-])c1 (stereo not drawn) [NI, nicardipine]
k12, rate constant of distribution from the central compartment to the peripheral compartment [1]: ≈ 0.0183 min^−1 | k21, rate constant of distribution from the peripheral compartment to the central compartment [1]: ≈ 0.0019 min^−1 | kel, elimination rate constant [1]: ≈ 0.0223 min^−1 | V1, the volume of distribution in the central compartment [2]: 0.32 ± 0.19 L/kg | t1/2α, the distribution half-life [2]: 0.278 ± 0.18 h | t1/2β, the elimination half-life [2]: 11.49 ± 5.76 h
